# Test results from EP3177150B1, “A COMBINATION OF VITAMIN D AND ZINC AND ITS USE” (Société des Produits Nestlé S.A., priority 2014, dated 2016).
# Where two headings read alike, the source gives them in different places.
# Legend:
# [1] = system: L6 differentiated muscle cells
# Method: The effect of zinc and vitamin D on glucose uptake in L6 differentiated muscle cells was measured after short (2hours) and long term (24 hours) incubations.
# Ingredient J was tested at 10 µM and 20 µM.
# Ingredient K was tested at 1 nM and 10 nM.
# Ingredient J was prepared in water and stored at -20°C (mother solution at 2 M) and ingredient K was prepared in DMSO and stored at -20°C (mother solution at 0.01 mM). The day of the experiment, the ingredients were diluted in a serum-free medium (DMEM) containing 5.5 mM D-glucose to achieve the final tested concentrations and 0.1 % of DMSO.
# L6 myoblasts were maintained in growth medium or DMEM 25 mM glucose supplemented with 10 % of fetal bovine serum (FBS), 100 U/ml penicillin, and 100 µg/ml streptomycin. For the glucose uptake study, cells were grown on 24 well plates at a density of 1000-1500 cells/well in 0.5 mL of growth medium. Five days after plating, the differentiation induction into myotubes was carried out in DMEM 25 mM glucose containing 2 % FBS, 100 U/ml penicillin, and 100 µg/ml streptomycin at 37°C under a 5 % CO2 atmosphere. The culture medium was changed every other day.
# For short term incubation (2 hours), the day prior to the test, the culture medium was replaced by DMEM 25 mM D-glucose containing 0.25 % BSA, 100 U/ml penicillin, and 100 µg/ml streptomycin. The day after and prior to the test, cells were washed and incubated in DMEM containing 5.5 mM D-glucose, 0.34 % BSA in the presence of the ingredients for 2 hours with and without insulin (100 nM).
# For long term incubation (24 hours), the day prior to the test, cells were pre-incubated in the presence of the tested ingredients (ingredient J, K, or a combination thereof) for 18 hours in DMEM 25 mM D-glucose containing 0.25 % BSA, 100 U/ml penicillin, and 100 µg/ml streptomycin in the absence of insulin. The day after and prior to the test, cells were washed and incubated in the presence of the tested ingredients for 6 hours more in DMEM containing 5.5 mM D-glucose, 0.34 % BSA without insulin. Insulin (100 nM) was added for the last 2 hours.
# In normal and physiopathological conditions, glucose uptake was measured by incubation of the cells with radiolabelled 2-deoxy-D-[1,2 3H] glucose for 15 min. Glucose uptake was arrested by two washing steps in ice-cold PBS 1X. Then cells were solubilized in 0.1 N NaOH for 30 min. Cell associated radioactivity was then counted and protein quantification was determined using the coloric Lowry method.
# Each condition was tested in triplicate. Insulin (100 and 1000 nM / 2 hours) and Metformin (1.5 mM / 24 hours) were used as positive controls.
# Results are expressed in pmol glucose incorporated / min / mg protein and in % of control or basal condition or insulin 0 nM (100 %).
# A statistical analysis allowing multiple comparisons (one way ANOVA followed by a Dunnett's t test; * P < 0.05, **P < 0.01, ***P < 0.001 versus control condition) was carried out.
# [2] = system: insulin resistant L6 differentiated muscle cells; assay: glucose uptake (radiolabelled 2-deoxy-D-glucose) in insulin resistant L6 differentiated muscle cells (Palmitate exposure); assay type: cell-based
# Method: Each condition was tested in triplicate.
# [3] = long term incubation (24 hrs), absence of insulin
# [4] = long term incubation (24 hrs), presence of insulin (100 nM, last 2 hours)
# [5] = short term incubation (2 hrs), absence of insulin, J 10 and 20 µM, K 1 and 10 nM, versus control
# [6] = short term incubation (2 hrs), presence of insulin (100 nM), J 10 and 20 µM, K 1 and 10 nM
# [7] = insulin resistant cells (Palmitate 6 hours), short term incubation (2 hrs), absence of insulin
# [8] = insulin resistant cells (Palmitate 6 hours), short term incubation (2 hrs), presence of insulin (100 nM)
# [9] = insulin resistant cells, long term incubation (24 hrs), absence of insulin
# [10] = insulin resistant cells, long term incubation (24 hrs), presence of insulin (100 nM, last 2 hours)
Structure (SMILES),"glucose uptake [1, 3]","glucose uptake [1, 4]","glucose uptake [1, 5]","glucose uptake [1, 6]","glucose uptake [2, 7]","glucose uptake [2, 8]","glucose uptake [2, 9]","glucose uptake [2, 10]"
"C=C1/C(=C\C=C2/CCC[C@]3(C)[C@@H]([C@H](C)CCCC(C)(C)O)CC[C@@H]23)C[C@@H](O)C[C@@H]1O [ingredient K, 1,25-dihydroxyvitamin D3]",no increases or a slight but not significant increase,No increase or a slight but not significant increase,significant increases,did not increase insulin-induced glucose uptake,significant increases,did not increase insulin-induced glucose uptake,no increases or a slight but not significant increase,No increase or a slight but not significant increase
"[Cl-].[Cl-].[Zn+2] [ingredient J, zinc chloride]",no increase or a slight but not significant increase,no increase or a slight but not significant increase,no increase or a slight but not significant increase,no increase or a slight but not significant increase,no increase or a slight but not significant increase,no increase or a slight but not significant increase,no increase or a slight but not significant increase,no increase or a slight but not significant increase
